Source: publication PMC9176062, “Phase Ib study of combinations of avadomide (CC‐122), CC‐223, CC‐292, and rituximab in patients with relapsed/refractory diffuse large B‐cell lymphoma” (EJHaem, 2022)

Columns and labels:
patients with R/R DLBCL = assay: Treatment duration, modification, and exposure; assay type: in vivo
Procedure: CC‐122 hydrochloride, referred to here as CC‐122, as an active pharmaceutical ingredient in capsule (AIC) formulation, was administered orally once daily (QD). An alternate intermittent schedule of CC‐122 QD for five of every seven consecutive days (5/7), which improved tolerability and reduced the frequency and severity of neutropenia in a study of CC‐122 monotherapy in DLBCL, was also explored. CC‐292 was administered orally twice daily (BID) and CC‐223 was administered orally QD. Rituximab was administered on day 8 of cycle 1, day 1 of cycles 2–6, and day 1 of every third cycle thereafter. Patients in arm A received CC‐122 and CC‐223 with or without rituximab (starting at CC‐122 2 mg QD and CC‐223 20 mg QD), patients in arm B received CC‐122 plus CC‐292 with or without rituximab (starting at CC‐122 2 mg QD and CC‐292 500 mg BID), patients in arm C were treated with CC‐223 and CC‐292 (starting at CC‐223 20 mg QD and CC‐292 500 mg BID), and those in arm D received CC‐122 plus rituximab (starting at CC‐122 2 mg QD). In arm D, a CC‐122 3 mg formulated capsule was introduced with the same strength as CC‐122 3 mg AIC. Each dose level was cleared before the next was started. If unacceptable toxicity occurred at the initial dose level, dose reductions for CC‐122 (1.5 mg QD and 1 mg QD) and CC‐223 (15 mg QD) were allowed; no starting dose reductions for CC‐292 were planned. For arm A, the Safety Review Committee (SRC) determined which of the two drugs in the doublet to reduce. For arms B and D, the CC‐122 dose was reduced and for arm C, the CC‐223 dose was reduced. Assignment of patients to study arms was at the discretion of the investigator and based on slot availability per the study design.
Patients who experienced dose‐limiting toxicity (DLT) after receiving ≥1 dose of study treatment or those who received ≥80% of planned doses of CC‐122, CC‐223, CC‐292, and rituximab during cycle 1 without experiencing a DLT were considered DLT‐evaluable. If zero out of ≥3 or ≤1 out of six evaluable patients in a cohort experienced a DLT during cycle 1 in parallel dose cohorts, then dose escalation could occur. DLTs are defined in the Supplementary Materials; individual investigators performed response assessments and determined DLTs. The NTD was defined as the dose level at which ≥2 of six evaluable patients in a cohort experienced a DLT during cycle 1. […] During cycle 1, any adverse event (AE) that led to dose reduction was considered a DLT. Patients could resume CC‐122 at a reduced dose only if they recovered to grade ≤1 within 14 days of dose interruption; two dose reductions were allowed before the patient was withdrawn from the study. Dose reductions were permitted for CC‐122, CC‐223, and CC‐292; no dose reductions were allowed for rituximab, but treatment could be discontinued at the discretion of the investigator. […] For arms A, B, and D, CC‐122 dosing was modified to the intermittent 5/7‐day schedule based on SRC review and escalated until the MTD/RP2D was established. Treatment was given until disease progression, unacceptable toxicity, or patient/physician decision to withdraw consent.
^aTreatment duration defined as date of last derived dose – date of first dose + 1.
^bDefined as the ratio of actual dose received to planned dose over the treatment period.

DOHH2 cells = assay: DOHH2 xenograft model; assay type: in vivo; settings: DLBCL xenograft model (DOHH2, SCID mice); avadomide oral once daily, rituximab 1 mg/kg once weekly
Procedure: Female severe combined immunodeficiency (SCID) mice (CB17/Icr-Prkdcscid, Charles River) were 8 weeks old, with body weights ranging from 15.0 g to 23.2 g on day 1 of these studies. Each SCID mouse was injected subcutaneously in the right flank with 5 × 10^6 DOHH2 cells (0.2-mL cell suspension). Tumors were calipered in 2 dimensions to monitor growth as their mean volume approached 100 to 150 mm^3. Fourteen days after tumor cell implantation, mice were sorted into treatment groups of 10 mice per group. Tumors were calipered twice weekly during the study. Avadomide was suspended in 0.5% carboxymethyl cellulose (0.25% Tween-80 in deionized water). Vehicle control and avadomide were each administered via oral gavage once daily; rituximab (1 mg/kg) was administered once weekly for the duration of the study.
FIGURE S1 Change in the percentage of apoptotic cells over time (A) and in vivo tumor growth response after combination treatment with avadomide and rituximab (B). Natural killer cell activity against DOHH or RL FL cell lines determined by flow cytometry is shown (A). Female CB17 severe combined immunodeficiency mice implanted subcutaneously with DOHH2 cells were administered vehicle and avadomide once daily and rituximab given 1 mg/kg once weekly (B). SEM, standard error of the mean; TGI, tumor growth inhibition. mm^3

Aiolos = assay: Blood pharmacodynamic biomarker Aiolos in CD3+ T cells and CD19+ B cells; assay type: in vivo, human; settings: arm B (with CC‐292), 3 h post‐dose; for median decline in Aiolos levels: 1 mg of CC‐122; for decline in Aiolos levels: 2‐mg CC‐122 group
Procedure: AEs were assessed according to the National Cancer Institute Common Terminology Criteria for AEs, version 4.03, up to 28 days after the last treatment. Blood samples for PK analysis were collected on days 15 to 28, predose, and at 1.5 and 3 h post‐dose on days 1 and 15 of cycle 1 for all dose cohorts. Additional blood samples were collected on day 15 from patients in dose level 2 of arm C to examine CC‐223 and CC‐292 steady‐state PK. Pharmacodynamic biomarkers of each novel agent were explored at baseline and cycle 1, day 1 (pre‐dose, and at 1.5 and 3 h) and cycle 1, day 15 (pre‐dose, and at 1.5 and 3 h), including cereblon modulation substrates in B and T cells in patients treated with CC‐122 and mTOR signaling pathway biomarkers (e.g., p4EBP1 and pAKT) in patients treated with CC‐223. Tumor assessments were performed at screening and at the end of even‐numbered cycles through cycle 6, then every three cycles through cycle 12, and every 6 months thereafter. Responses were assessed by the investigator per International Working Group 2007 criteria.
Safety analyses were performed on all patients who received ≥1 dose of study treatment (safety population). The PK population comprised all patients who took ≥1 dose of study treatment and had ≥1 measured drug concentration. […] The biomarker‐evaluable population comprised all patients who took ≥1 dose of study treatment and had ≥1 pharmacodynamic assessment. Safety and efficacy analyses were based on the safety population except where noted (PK and biomarkers). PK parameters were calculated using actual times relative to the most recent administration. The median duration of response (DOR) and median PFS were calculated per the Kaplan‐Meier method.
Per cent change from baseline in Aiolos in CD3+ T cells (A) and CD19+ B cells (B) and in p4EBP1 (C) and pAKT (D) at 3 h post‐dose on day 1 of cycle 1 (biomarker‐evaluable population). The change in Aiolos expression in CD3+ T cells and CD19+ B cells was calculated within each avadomide‐ and CC‐223‐containing arm. *p ≤ 0.05 versus baseline; **p ≤ 0.01 versus baseline; ***p ≤ 0.001 versus baseline; DL, dose level; MEFL, molecules of equivalent fluorescence label; NS, not significant

DOHH2 and RL cells = assay: Antibody-dependent, cell-mediated cytotoxicity (NK cells vs tumor cells, flow cytometry); assay type: cell-based; settings: two DLBCL cell lines; NK cells pretreated with avadomide 1–100 nM, rituximab 1 μg/mL
Procedure: Purified natural killer (NK) cells from patient peripheral blood mononuclear cell samples were treated with 10 ng/mL rh-IL-2 (R&D) alone or with avadomide (1–100 nM) for 24 hours at 37°C. Cells (1 × 10^6 cells/mL) from 2 FL cell lines, DOHH2 and RL, were stained with CellTrace carboxyfluorescein succinimidyl ester (CFSE; Thermo Fisher Scientific) (200 nmol/L) for 5 minutes at room temperature, then treated with dimethyl sulfoxide (DMSO; vehicle) or rituximab (1 μg/mL) for 1 hour prior to coculture. Target tumor DOHH2 and RL cells (2 × 10^4 cells) were added to DMSO or avadomide pretreated effector NK cells at a 1:5 ratio (target to effector cells) and were incubated for 4 hours at 37°C. Cells were stained with Annexin V-PE and TO-PRO-3 (Thermo Fisher Scientific) according to the manufacturer’s instructions. The percentage of tumor apoptosis was determined by sequential gating for CFSE-positive and double-positive (Annexin V-PE and TO-PRO-3–positive) cells.
FIGURE S1 Change in the percentage of apoptotic cells over time (A) and in vivo tumor growth response after combination treatment with avadomide and rituximab (B). Natural killer cell activity against DOHH or RL FL cell lines determined by flow cytometry is shown (A). […]

[1] = Overall (all arms with the drug)

## rituximab [reference compound]
Patients with R/R DLBCL; Arm A (Avadomide + CC-223 ± R)
  ≥1 dose interruption: 9 (47.4) n (%)
  ≥1 dose interruption: Adverse event: 6 (31.6) n (%)
  ≥1 dose interruption: Other: 5 (26.3) n (%)
Patients with R/R DLBCL; Arm B (Avadomide + CC-292 ± R)
  ≥1 dose interruption: 2 (16.7) n (%)
  ≥1 dose interruption: Adverse event: 2 (16.7) n (%)
  ≥1 dose interruption: Other: 1 (8.3) n (%)
Patients with R/R DLBCL; Arm D (Avadomide + R)
  ≥1 dose interruption: 2 (6.7) n (%)
  ≥1 dose interruption: Adverse event: 1 (3.3) n (%)
  ≥1 dose interruption: Other: 2 (6.7) n (%)
Patients with R/R DLBCL; [1]
  ≥1 dose interruption: 13 (21.3) n (%)
  ≥1 dose interruption: Adverse event: 9 (14.8) n (%)
  ≥1 dose interruption: Other: 8 (13.1) n (%)
DOHH2 cells
  tumor growth inhibition (TGI): 19%

## Cc1nc2cccc(N)c2c(=O)n1C1CCC(=O)NC1=O (stereo not shown) [CC‐122, Avadomide]
Patients with R/R DLBCL; human, in vivo
  patients with dose reductions of the drug: 20.5%
  ≥1 dose interruption: 59 (67.0) n (%)
  ≥1 dose interruption: Adverse event: 49 (55.7) n (%)
  ≥1 dose interruption: Other: 35 (39.8) n (%)
  ≥1 dose interruption: Per protocol: 6 (6.8) n (%)
  ≥1 dose reduction: 18 (20.5) n (%)
  ≥1 dose reduction: Adverse event: 11 (12.5) n (%)
  ≥1 dose reduction: Other: 5 (5.7) n (%)
  ≥1 dose reduction: Per protocol: 1 (1.1) n (%)
Aiolos; CD3+ T cells
  median decline in Aiolos levels: approximately 20%
  decline in Aiolos levels: approximately 40%
Aiolos; CD19+ B cells
  median decline in Aiolos levels: ~5%
  decline in Aiolos levels: ~32%
DOHH2 cells
  tumor growth inhibition (TGI): 28%
DOHH2 and RL cells
  rituximab‐mediated antibody‐dependent cell‐mediated cytotoxicity: enhancement
